Reference: patent publication US11591323B2, “Muscarinic agonists as non-steroidal and non-opioid analgesics and methods of use thereof” (Barry University, priority 2019, dated 2023)
Where two headings read alike, the source gives them in different places.

Test system: rat aorta smooth muscle cells (mainly M2, lesser M3)
Experiment: cAMP level in primary culture of rat aorta smooth muscle cells
Format: cell-based
Method: Effects of compounds 6A and 7A on both cAMP and IPX levels were also measured in primary cultures of rat aorta smooth muscle cells that express mainly M2 and to a lesser extent M3 receptors (FIG. 6). […] Receptor expression levels are far lower in tested native tissues than in transfected cell lines and vary among tissues, being highest in the striatum and lowest in the submaxillary gland. Relative expression levels of G-proteins are also known to vary among tissues and cell lines. Thus, it is great to see that the pharmacological profile of the new compounds is conserved despite these variations.
Cell culture and membrane preparation: Chinese hamster ovary (CHO) cells stably transfected with the genes of individual human variants of muscarinic receptors were purchased from Missouri S&T cDNA Resource Center (Rolla, Mo., USA). Fresh primary cell culture of smooth muscle cells (SMC) from rat aorta prepared as previously described was kindly provided by Dr. Lucie Bačáková. Primary culture of SMCs was grown to confluency in 75 cm^2 flasks in Dulbecco's modified Eagle's medium supplemented with 10% fetal bovine serum. Up to 6-times, 2 million of cells were sub-cultured. Cell cultures and crude membranes from CHO cells were prepared as described previously (Boulos et al., Chem Biol Drug Des 1-12, 2017). Cells were grown to confluency in 75 cm^2 flasks in Dulbecco's modified Eagle's medium supplemented with 10% fetal bovine serum and 2 million of cells were subcultured in 100 mm Petri dishes. Medium was supplemented with 5 mM butyrate for the last 24 hours of cultivation to increase receptor expression. When needed, cells were cultivated with pertussis toxin at a final concentration of 25 ng/ml for the 24 hours. Cells were detached by mild trypsinization on day 5 after subculture. Detached cells were washed twice in 50 ml of phosphate-buffered saline and 3 min centrifugation at 250×g. Washed cells were suspended in 20 ml of ice-cold incubation medium (100 mM NaCl, 20 mM Na-HEPES, 10 mM MgCl2, pH=7.4) supplemented with 10 mM EDTA and homogenized on ice by two 30 sec strokes using Polytron homogenizer (Ultra-Turrax; Janke & Kunkel GmbH & Co. KG, IKA-Labortechnik, Staufen, Germany) with a 30-sec pause between strokes. Cell homogenates were centrifuged for 30 min at 30,000×g. Supernatants were discarded, pellets suspended in fresh incubation medium, incubated on ice for 30 minutes and centrifuged again. Resulting membrane pellets were kept at −80° C. until assayed within 10 weeks at a maximum.
Measurements of the production of cAMP and inositol phosphates: Levels of second messengers cAMP and inositol phosphates were determined in radiochemical chromatography assays as described previously. To determine level of cAMP, cells in suspension were pre-incubated for 1 h with 0.4 μM [^3H]adenine, washed, and incubated for 10 min in the presence of isobutylmethylxanthine and 10 μM forskolin. […] Incubation was ended by addition of 0.2 ml of 2.5 M HCl to the samples. Samples were applied to alumina columns (1.5 g of alumina per column), washed with 2 ml ammonium acetate (pH=7.0) and eluted from columns with 4 ml ammonium acetate and measured by liquid scintillation spectrometry. […] For this purpose, new CHO cell lines stably expressing promiscuous G15 G-protein and M2 or M4 receptor were generated by transfection with pCMV/hygro vector and hygromycin selection. To determine the rate of formation of inositol phosphates IPX, suspended cells were pre-incubated with 0.1 μM [^3H]myo-inositol for 60 min, washed, and incubated with 10 mM LiCl for 15 min. […] The incubation was stopped by addition of 0.5 ml of chloroform methanol HCl mixture (2:1:0.1). […]

SMILES	Maximal inhibition of cAMP synthesis	Maximal inhibition of cAMP synthesis (in words)	cAMP level (in words)
C1=CCN(Cc2cccs2)CC1.Cl [Compound 6A, 1-[(thiophen-2-yl)methyl]-1,2,3,6-tetrahydropyridin-1-ium chloride]	about 40%	the same as inhibition by carbachol	only inhibited cAMP synthesis
C[N+]1(Cc2cccs2)CC=CCC1.[I-] (centres unmarked) [Compound 7A, 1-methyl-1-[(thiophen-2-yl)methyl]-1,2,3,6-tetrahydropyridin-1-ium iodide]	about 40%	the same as inhibition by carbachol	only inhibited cAMP synthesis
C[N+](C)(C)CCOC(N)=O [carbachol, reference compound]	about 40%		transient decrease in cAMP level
